Experimental data taken from patent publication US6355799B1, “Substituted benzene compounds, process for their preparation, and herbicidal and defoliant compositions containing them” (ISK Americas Incorporated, priority 1997, dated 2002).

Assays:
Assay type in all cases: in vivo
[1] = tested on: field corn (Zea mays L., var. Dekalb 535, CORN); assay: Pre-emerge test, crop safety; conditions: pre-emerge, 14 days after application, scale 0-100
Summary of the method: (§1)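 Compounds in acetone were track-sprayed at 187 l/ha, 15–1000 g ai/ha, onto sandy loam pots. Pre-emerge seeds were sown one day before spraying, with surface watering afterwards. Post-emerge plants were at the 2–3 leaf stage and sprayed with 0.25% v/v non-ionic surfactant. Injury was rated 0–100 at 14 days.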

[2] = tested on: upland rice (Oryza sp., var. Tebonnet, RICE); assay: Pre-emerge test, crop safety; conditions: pre-emerge, 14 days after application, scale 0-100
Summary of the method: as §1

[3] = tested on: field corn (Zea mays L., var. Dekalb 535, CORN); assay: Post-emerge test, crop safety; conditions: post-emerge, 14 days after application, rating scale 0-100
Summary of the method: (§2)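 Fourteen days after spraying, crop and weed injury was graded visually from 0, no effect, to 100, every plant dead. Test substances were dissolved in acetone and applied at 15–1000 g ai/ha with a flat-fan nozzle. Application was either pre-emergence, one day after sowing, or post-emergence at the 2–3 leaf stage.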

[4] = tested on: upland rice (Oryza sp., var. Tebonnet, RICE); assay: Post-emerge test, crop safety; conditions: post-emerge, 14 days after application, rating scale 0-100
Summary of the method: as §2

[5] = tested on: redroot pigweed (Amaranthus retroflexus, AMARE); assay: Pre-emerge test, greenhouse herbicide activity screening; conditions: pre-emerge, 14 days after application, scale 0-100
Summary of the method: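 Sandy loam pots; pre-emerge: sown 1 d pre-spray, surface-watered after, then bottom-watered. Post-emerge: sown 8–21 d before, 2–3 leaf stage, + 0.25% v/v NIS, bottom-watered. Acetone, 187 l/ha track spray, 15–1000 g ai/ha. 0–100 injury score, day 14.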

[6] = tested on: ivyleaf morningglory (Ipomoea hederacea, IPOHE); assay: Post-emerge test, greenhouse herbicide activity screening; conditions: post-emerge, 14 days after application, rating scale 0-100
Text: (§3) A standard greenhouse herbicide activity screening system was used to evaluate the herbicidal efficacy and crop safety of these test compounds. Seven broadleaf weed species including redroot pigweed (Amaranthus retroflexus, AMARE, velvetleaf (Abutilon theophrasti, ABUTH), sicklepod (Cassia obtusifolia, CASOB), ivyleaf morningglory (Ipomoea hederacea, IPOHE), lambsquarters (Chenopodium album, CHEAL), common ragweed (Ambrosia artemisizfolia L., AMBEL), and cocklebur (Xanthium strumarium, XANST) were used as test species. Four grass weed species including green foxtail (Setaria viridis, SETVI), barnyardgrass (Echinochloa crus-galli, ECHCG), johnsongrass (Sorghum halepense, SORHA), and large crabgrass (Digitaria sanguinalis, DIGSA) were also used. In addition, three crop species, field corn (Zea mays L., var. Dekalb 535, CORN), soybean (Glycine max L., var. Pella 86, SOY), and is upland rice (Oryza sp., var. Tebonnet, RICE) were included.
(§4) All plants were grown in 10 cm square plastic pots which were filled with a sandy loam soil mix. For pre-emerge tests, seeds were planted one day prior to application of the test compounds. For post-emerge tests, seeds were planted 8-21 days prior to the test to allow emergence and good foliage development prior to application of the test substances. At the time of the post-emerge application, plants of all species were usually at the 2-3 leaf stage of development.
(§5) All test compounds Were dissolved in acetone and applied to the test units in a volume of 187 l /ha. Test materials were applied at rates ranging from 15 g ai/ha to 1000 g ai/ha using a track sprayer equipped with a TJ8001E even flow flat fan spray nozzle. Plants were arranged on a shelf so that the top of the canopy (post-emerge) or top of the soil surface (pre-emerge) was 40-45 cm below the nozzle. Pressurized air was used to force the test solution through the nozzle as it was mechanically advanced (via electrically driven chain drive) over the top of all test plants/pots. This application simulates a typical commercial field herbicide application.
(§6) In the post-emerge test, a commercial non-ionic surfactant was also included (0.25% v/v) to enhance wetting of the leaf surfaces of target plants. Immediately after application, test units of the pre-emerge applications were watered at the soil surface to incorporate the test materials. Subsequently, these test units were bottom-watered. Post-emerge test units were always bottom-watered.
(§7) At 14 days after application of the test materials, phytotoxicity ratings were recorded. A rating scale of 0-100 was used as previously described in Research Methods in Weed Science, 2nd edition, B. Truelove, Ed., Southern Weed Science Society, Auburn University, Auburn, Ala. 1977. Briefly, “0” corresponds to no damage and “100” corresponds to complete death of all plants in the test unit. This scale was used both to determine efficacy against weed species and damage to crop species. Herbicide activity data for various compounds of this invention, which are shown by compound No. in Tables 1-8, are shown in Tables 11 and 12.

[7] = tested on: barnyardgrass (Echinochloa crus-galli, ECHCG); assay: as above; conditions: post-emerge, 14 days after application, rating scale 0-100
Text: as §3, §4, §5, §6, §7

[8] = tested on: sicklepod (Cassia obtusifolia, CASOB); assay: as above; conditions: post-emerge, 14 days after application, rating scale 0-100
Text: as §3, §4, §5, §6, §7

[9] = tested on: velvetleaf (Abutilon theophrasti, ABUTH); assay: as above; conditions: post-emerge, 14 days after application, rating scale 0-100
Text: as §3, §4, §5, §6, §7

[10] = tested on: large crabgrass (Digitaria sanguinalis, DIGSA); assay: as above; conditions: post-emerge, 14 days after application, rating scale 0-100
Text: as §3, §4, §5, §6, §7

[11] = tested on: green foxtail (Setaria viridis, SETVI); assay: as above; conditions: post-emerge, 14 days after application, rating scale 0-100
Text: as §3, §4, §5, §6, §7

[12] = tested on: lambsquarters (Chenopodium album, CHEAL); assay: as above; conditions: post-emerge, 14 days after application, rating scale 0-100
Text: as §3, §4, §5, §6, §7

[13] = tested on: redroot pigweed (Amaranthus retroflexus, AMARE); assay: as above; conditions: post-emerge, 14 days after application, rating scale 0-100
Text: as §3, §4, §5, §6, §7

[14] = tested on: ivyleaf morningglory (Ipomoea hederacea, IPOHE); assay: Pre-emerge test, greenhouse herbicide activity screening; conditions: pre-emerge, 14 days after application, scale 0-100
Text: as §3, §4, §5, §6, §7

[15] = tested on: barnyardgrass (Echinochloa crus-galli, ECHCG); assay: as above; conditions: pre-emerge, 14 days after application, scale 0-100
Text: as §3, §4, §5, §6, §7

[16] = tested on: sicklepod (Cassia obtusifolia, CASOB); assay: as above; conditions: pre-emerge, 14 days after application, scale 0-100
Text: as §3, §4, §5, §6, §7

[17] = tested on: velvetleaf (Abutilon theophrasti, ABUTH); assay: as above; conditions: pre-emerge, 14 days after application, scale 0-100
Text: as §3, §4, §5, §6, §7

[18] = tested on: large crabgrass (Digitaria sanguinalis, DIGSA); assay: as above; conditions: pre-emerge, 14 days after application, scale 0-100
Text: as §3, §4, §5, §6, §7

[19] = tested on: green foxtail (Setaria viridis, SETVI); assay: as above; conditions: pre-emerge, 14 days after application, scale 0-100
Text: as §3, §4, §5, §6, §7

[20] = tested on: lambsquarters (Chenopodium album, CHEAL); assay: as above; conditions: pre-emerge, 14 days after application, scale 0-100
Text: as §3, §4, §5, §6, §7

Compound: COc1c(C#N)cc(F)c(-n2c(=O)cc(C(F)(F)F)n(C)c2=O)c1NC(=O)c1ccc2ccccc2c1 [2-180]
- phytotoxicity rating CORN (crop damage) ([1]; 63 g ai/ha): 0
- phytotoxicity rating CORN (crop damage) ([1]; 250 g ai/ha): 5
- phytotoxicity rating RICE (crop damage) ([2]; 63 g ai/ha): 40
- phytotoxicity rating RICE (crop damage) ([2]; 250 g ai/ha): 70
- CORN phytotoxicity rating (crop damage) ([3]; 63 g ai/ha): 5
- CORN phytotoxicity rating (crop damage) ([3]; 250 g ai/ha): 20
- RICE phytotoxicity rating (crop damage) ([4]; 63 g ai/ha): 20
- RICE phytotoxicity rating (crop damage) ([4]; 250 g ai/ha): 65
- phytotoxicity rating AMARE ([5]; 63 g ai/ha): 100
- phytotoxicity rating AMARE ([5]; 250 g ai/ha): 100
- IPOHE phytotoxicity rating ([6]; 63 g ai/ha): 100
- IPOHE phytotoxicity rating ([6]; 250 g ai/ha): 100
- ECHCG phytotoxicity rating ([7]; 63 g ai/ha): 40
- ECHCG phytotoxicity rating ([7]; 250 g ai/ha): 60
- CASOB phytotoxicity rating ([8]; 63 g ai/ha): 100
- CASOB phytotoxicity rating ([8]; 250 g ai/ha): 100
- ABUTH phytotoxicity rating ([9]; 63 g ai/ha): 100
- ABUTH phytotoxicity rating ([9]; 250 g ai/ha): 100
- DIGSA phytotoxicity rating ([10]; 63 g ai/ha): 40
- DIGSA phytotoxicity rating ([10]; 250 g ai/ha): 40
- SETVI phytotoxicity rating ([11]; 63 g ai/ha): 60
- SETVI phytotoxicity rating ([11]; 250 g ai/ha): 70
- CHEAL phytotoxicity rating ([12]; 63 g ai/ha): 100
- CHEAL phytotoxicity rating ([12]; 250 g ai/ha): 100
- AMARE phytotoxicity rating ([13]; 63 g ai/ha): 100
- AMARE phytotoxicity rating ([13]; 250 g ai/ha): 100
- phytotoxicity rating IPOHE ([14]; 63 g ai/ha): 60
- phytotoxicity rating IPOHE ([14]; 250 g ai/ha): 100
- phytotoxicity rating ECHCG ([15]; 63 g ai/ha): 10
- phytotoxicity rating ECHCG ([15]; 250 g ai/ha): 80
- phytotoxicity rating CASOB ([16]; 63 g ai/ha): 40
- phytotoxicity rating CASOB ([16]; 250 g ai/ha): 50
- phytotoxicity rating ABUTH ([17]; 63 g ai/ha): 100
- phytotoxicity rating ABUTH ([17]; 250 g ai/ha): 100
- phytotoxicity rating DIGSA ([18]; 63 g ai/ha): 20
- phytotoxicity rating DIGSA ([18]; 250 g ai/ha): 90
- phytotoxicity rating SETVI ([19]; 63 g ai/ha): 30
- phytotoxicity rating SETVI ([19]; 250 g ai/ha): 90
- phytotoxicity rating CHEAL ([20]; 63 g ai/ha): 100
- phytotoxicity rating CHEAL ([20]; 250 g ai/ha): 100
